Results: ChEMBL document CHEMBL1201862, “PubChem BioAssay data set” (2004)
Values belong to the compound of their own block, whether it stands above or below them. Active and inactive are the calls of the source.

What was measured:
[1] = biological target: T1, Sentrin-specific protease 7 (Homo sapiens, UniProt Q9BQF6); assay type: functional;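 further: Luminescence-based dose-response confirmation of ultra-high-throughput screening hits, measuring inhibition of SENP7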
T1 sequence (Q9BQF6 whole entry): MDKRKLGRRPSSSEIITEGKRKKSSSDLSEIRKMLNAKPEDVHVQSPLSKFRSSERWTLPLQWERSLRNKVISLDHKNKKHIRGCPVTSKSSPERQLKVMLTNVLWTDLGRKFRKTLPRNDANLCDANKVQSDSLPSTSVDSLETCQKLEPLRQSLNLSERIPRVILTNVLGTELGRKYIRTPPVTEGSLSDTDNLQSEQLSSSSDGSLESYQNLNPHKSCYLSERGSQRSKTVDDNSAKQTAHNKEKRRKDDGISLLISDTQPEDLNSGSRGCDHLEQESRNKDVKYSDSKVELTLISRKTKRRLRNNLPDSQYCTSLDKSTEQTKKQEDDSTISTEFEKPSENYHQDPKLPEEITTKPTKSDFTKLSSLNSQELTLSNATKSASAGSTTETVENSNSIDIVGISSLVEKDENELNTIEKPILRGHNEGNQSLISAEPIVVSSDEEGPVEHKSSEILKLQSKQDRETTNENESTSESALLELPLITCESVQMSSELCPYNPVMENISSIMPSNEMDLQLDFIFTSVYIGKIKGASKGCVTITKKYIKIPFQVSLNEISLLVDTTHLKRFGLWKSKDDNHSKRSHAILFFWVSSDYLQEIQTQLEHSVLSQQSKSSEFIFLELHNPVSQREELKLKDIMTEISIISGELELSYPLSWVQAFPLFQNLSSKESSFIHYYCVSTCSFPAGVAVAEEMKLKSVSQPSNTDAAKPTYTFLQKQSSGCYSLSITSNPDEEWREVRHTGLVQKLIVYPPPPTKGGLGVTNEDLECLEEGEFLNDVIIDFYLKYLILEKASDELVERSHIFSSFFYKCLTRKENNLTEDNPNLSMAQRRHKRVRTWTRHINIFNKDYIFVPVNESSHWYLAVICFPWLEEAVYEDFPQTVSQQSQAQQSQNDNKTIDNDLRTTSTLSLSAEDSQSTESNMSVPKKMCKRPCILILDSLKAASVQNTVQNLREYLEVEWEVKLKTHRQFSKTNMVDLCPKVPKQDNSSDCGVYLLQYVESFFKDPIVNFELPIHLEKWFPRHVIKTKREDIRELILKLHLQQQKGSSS

Caspase-6 = biological target: T2, Caspase-6 (Homo sapiens, UniProt P55212); experiment: inhibition of CASP6 peptide cleavage – biochemical, VEID-R110 fluorescence, cherry-pick, dose response (AID 720632)
T2 sequence (P55212 whole entry): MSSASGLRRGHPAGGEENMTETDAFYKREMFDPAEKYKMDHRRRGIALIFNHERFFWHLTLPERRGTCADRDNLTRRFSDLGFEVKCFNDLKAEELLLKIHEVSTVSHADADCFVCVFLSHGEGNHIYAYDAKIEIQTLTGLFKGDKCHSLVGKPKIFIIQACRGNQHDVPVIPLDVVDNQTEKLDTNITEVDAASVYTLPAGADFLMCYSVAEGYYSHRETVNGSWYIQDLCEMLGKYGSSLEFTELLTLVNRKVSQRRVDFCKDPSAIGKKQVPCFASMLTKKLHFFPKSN

[2] = biological target: T3, Sentrin-specific protease 6 (Homo sapiens, UniProt Q9GZR1); experiment: SAR Analysis of small molecule inhibitors of Sentrin-specific protease 6 (SENP6) using a Luminescent assay. [Related pubchem assays (depositor defined):AID2582, AID2599]; assay type: functional
T3 sequence (Q9GZR1 whole entry): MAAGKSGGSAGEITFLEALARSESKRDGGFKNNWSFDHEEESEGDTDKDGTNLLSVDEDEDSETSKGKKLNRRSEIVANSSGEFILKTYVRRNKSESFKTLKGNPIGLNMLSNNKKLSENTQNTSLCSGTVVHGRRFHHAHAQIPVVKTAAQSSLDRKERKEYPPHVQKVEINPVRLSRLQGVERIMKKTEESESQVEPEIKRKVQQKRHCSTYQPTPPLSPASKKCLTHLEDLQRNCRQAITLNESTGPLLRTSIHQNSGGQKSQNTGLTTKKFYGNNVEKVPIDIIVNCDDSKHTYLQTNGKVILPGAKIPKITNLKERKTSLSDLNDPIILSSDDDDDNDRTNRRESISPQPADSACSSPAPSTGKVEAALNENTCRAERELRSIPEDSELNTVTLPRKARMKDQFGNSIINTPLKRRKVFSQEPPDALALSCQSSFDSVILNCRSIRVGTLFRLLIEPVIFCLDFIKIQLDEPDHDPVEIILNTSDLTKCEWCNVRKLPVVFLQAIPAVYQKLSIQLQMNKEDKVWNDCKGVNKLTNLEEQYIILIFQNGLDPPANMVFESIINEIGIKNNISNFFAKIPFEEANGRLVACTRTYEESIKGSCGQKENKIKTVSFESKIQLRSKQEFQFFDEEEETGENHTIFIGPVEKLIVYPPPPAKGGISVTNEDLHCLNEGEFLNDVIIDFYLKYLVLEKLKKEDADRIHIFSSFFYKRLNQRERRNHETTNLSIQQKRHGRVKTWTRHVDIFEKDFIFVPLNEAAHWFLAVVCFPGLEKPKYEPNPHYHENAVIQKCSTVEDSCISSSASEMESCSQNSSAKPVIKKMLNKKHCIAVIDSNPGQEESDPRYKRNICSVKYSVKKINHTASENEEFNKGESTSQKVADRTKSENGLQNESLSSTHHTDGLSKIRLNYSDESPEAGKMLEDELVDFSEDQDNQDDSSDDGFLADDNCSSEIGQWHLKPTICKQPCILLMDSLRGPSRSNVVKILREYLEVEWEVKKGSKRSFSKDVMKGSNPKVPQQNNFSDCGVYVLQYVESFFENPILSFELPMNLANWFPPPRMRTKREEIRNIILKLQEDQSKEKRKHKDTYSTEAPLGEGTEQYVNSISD

[3] = biological target: T4, Heat shock factor protein 1 (Mus musculus, UniProt P38532); experiment: enhancement of HSF1-driven luciferase signal – cell-based, NIH3T3, luminescence, dose retest, confirmation (AID 435004); assay type: functional;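 further: stress induced by proteasome inhibitor MG132 added 30 min after compound; luciferase reporter driven by HSF1 response element in NIH3T3 cells; actives raise luminescence as potentiators of the MG132 stress response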
T4 sequence (P38532 whole entry): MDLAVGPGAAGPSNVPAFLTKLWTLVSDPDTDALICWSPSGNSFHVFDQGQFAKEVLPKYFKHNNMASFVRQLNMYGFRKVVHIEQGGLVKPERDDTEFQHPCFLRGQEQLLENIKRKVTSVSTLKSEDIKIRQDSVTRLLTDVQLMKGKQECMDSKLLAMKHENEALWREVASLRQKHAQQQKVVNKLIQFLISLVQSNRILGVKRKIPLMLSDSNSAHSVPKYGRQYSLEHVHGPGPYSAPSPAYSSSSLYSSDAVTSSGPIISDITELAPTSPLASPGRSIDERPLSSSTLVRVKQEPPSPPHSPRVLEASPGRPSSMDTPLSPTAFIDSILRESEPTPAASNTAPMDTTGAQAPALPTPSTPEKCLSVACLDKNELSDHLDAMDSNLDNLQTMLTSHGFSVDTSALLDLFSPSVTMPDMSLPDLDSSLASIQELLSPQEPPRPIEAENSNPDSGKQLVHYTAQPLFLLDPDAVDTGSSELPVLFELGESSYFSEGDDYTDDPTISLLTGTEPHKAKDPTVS

IC50 [1]: 4.45 µM (active)
AC50 (Caspase-6): 16.9 µM (active)
SMILES: CCCOc1cc2c(C#N)c(N3CCCC3)nc(N)c2c(N)n1

IC50 [2]: 10.5 µM (active)
SMILES: Oc1ccc(/C=N/Nc2cc(N3CCCC3)nc(N3CCCC3)n2)cc1O

SMILES: Cc1cc2nc3ccc(N(C)C)cc3[s+]c2cc1N [TOLONIUM CHLORIDE]
EC50 [3]: > 260 µM (inactive)
